Assay results as given in US8008329B2 (Dong Wha Pharmaceutical Co., Ltd., priority 2008, dated 2011).
Marks after values point to notes of the source that are not given here.

System: osteoclast differentiation
Test: Osteoclast differentiation in co-culture of mouse bone marrow cells and ST2 cells, TRAP staining (Examples 8-9)
Format: cell-based
Details: for % number of osteoclast (vs. solvent control group): 0.1 μM each, day 7; for activity at 0.1 µM: Mus musculus, Osteoclast, 168 h, Individual treatment (compounds), day 7, read-out: % number of osteoclast (vs. solvent control group)
How it was run: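 Bone marrow cells from 6-8-week male ddY mice were co-cultured with ST2 stromal cells under 10^−8 M vitamin D3 and 10^−8 M dexamethasone, with compounds at 0.1 μM final (0.1% DMSO control), refreshed on days 3 and 5. On day 7, TRAP-positive osteoclasts with ≥6 nuclei were counted and expressed as % of solvent control (n=4).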

[1] = Combination treatment (alendronic acid + compounds)
[2] = Combination treatment (risedronic acid + compounds)

Compound	% number of osteoclast (vs. solvent control group) [1]	% number of osteoclast (vs. solvent control group) [2]	activity at 0.1 µM [%]
CN1CCN(CCc2sc(C3CCCCC3)nc2-c2ccc(OCCCCCOc3ccc(C(=N)NO)cc3)cc2)CC1 [Compound 247, N-hydroxy-4-[5-(4-{2-cyclohexyl-5-[2-(4-methyl-piperazin-1-yl)-ethyl]-thiazol-4-yl}-phenoxy)-pentyloxy]-benzamidine]	39 ± 3.7^ab %	17 ± 4.5^ac %	63 ± 4.2
Cc1nc(-c2ccc(OCCCCCOc3ccc(C(=N)NO)cc3)cc2)c(CCNC(C)C)s1 [Compound 219, N-hydroxy-4-(5-{4-[5-(2-isopropylamino-ethyl)-2-methyl-thiazol-4-yl]-phenoxy}-pentyloxy)-benzamidine]	51 ± 5.4^b %	40 ± 3.8^c %	61 ± 10.5
Cc1nc(-c2ccc(OCCCCCOc3ccc(C(=N)NO)cc3)cc2)c(CCNCC(C)C)s1 [Compound 235, N-hydroxy-4-(5-{4-[5-(2-isobutylamino-ethyl)-2-methyl-thiazol-4-yl]-phenoxy}-pentyloxy)-benzamidine]	33 ± 1.8%	25 ± 4.4^c %	38 ± 7.6
Cc1nc(-c2ccc(OCCCCCOc3ccc(C(=N)NO)cc3)cc2)c(CNC2CC2)s1 [Compound 307, N-hydroxy-4-{5-[4-(5-cyclopropylaminomethyl-2-methyl-thiazol-4-yl)-phenoxy]-pentyloxy}-benzamidine]	30 ± 3.0^b %	16 ± 4.8^ac %	43 ± 8.9
CN(CCN1CCOCC1)c1nc(-c2ccc(OCCCCCOc3ccc(C(=N)NO)cc3)cc2)c(CN2CCSCC2)s1 [Compound 314, N-hydroxy-4-[5-(4-{2-[methyl-(2-morpholin-4-yl-ethyl)-amino]-5-thiomorpholin-4-ylmethyl-thiazol-4-yl}-phenoxy)-pentyloxy]-benzamidine]	15 ± 1.7^ab %	9 ± 3.2^ac %	43 ± 7
CC(C)c1nc(-c2ccc(OCCCCCOc3ccc(C(=N)NO)cc3)cc2)c(CCN(C(=O)c2ccncc2)C2CC2)s1 [Compound 280, N-hydroxy-4-{5-[4-(5-{2-[cyclopropyl-(pyridin-4-carbonyl)-amino]-ethyl}-2-isopropyl-thiazol-4-yl)-phenoxy]-pentyloxy}-benzamidine]	25 ± 6.4^b %	8 ± 1.4^ac %	40 ± 5
COCCN(CCOC)c1nc(-c2ccc(OCCCCCOc3ccc(C(=N)NO)cc3)cc2)c(CCN2CCOCC2)s1 [Compound 271, N-hydroxy-4-(5-{4-[2-[bis-(2-methoxy-ethyl)-amino]-5-(2-morpholin-4-yl-ethyl)-thiazol-4-yl]-phenoxy}-pentyloxy)-benzamidine]	13 ± 3.7^ab %	16 ± 2.9^ac %	30 ± 5.3
N=C(NO)c1ccc(OCCCCCOc2ccc(-c3nc(C4CCCCC4)sc3CCNCCN3CCOCC3)cc2)cc1 [Compound 248, N-hydroxy-4-[5-(4-{2-cyclohexyl-5-[2-(2-morpholin-4-yl-ethylamino)-ethyl]-thiazol-4-yl}-phenoxy)-pentyloxy]-benzamidine]	33 ± 5.6^b %	27 ± 4.9^ac %	49 ± 8.7
CCN(CC)c1nc(-c2ccc(OCCCCCOc3ccc(C(=N)NO)cc3)cc2)c(C(C)C)s1 [Compound 162, N-hydroxy-4-{5-[4-(5-isopropyl-2-diethylamino-1,3-thiazol-4-yl)phenoxy]pentyloxy}-benzamidine]	78 ± 1.8%	61 ± 7.5^ac %	98 ± 8.2
CCCN(CCC)c1nc(-c2ccc(OCCCCCOc3ccc(C(=N)NO)cc3)cc2)c(C(C)C)s1 [Compound 157, N-hydroxy-4-{5-[4-(5-isopropyl-2-dipropylamino-1,3-thiazol-4-yl)phenoxy]pentyloxy}-benzamidine]	39 ± 8.3^ab %	36 ± 15.1^ac %	78 ± 13.5
CNc1nc(-c2ccc(OCCCCCOc3ccc(C(=N)NO)cc3)cc2)c(CCCl)s1 [Compound 115, N-hydroxy-4-{5-[4-(5-(2-chloroethyl)-2-methylamino-1,3-thiazol-4-yl)phenoxy]pentyloxy}-benzamidine]	51 ± 8.9%	45 ± 8.3^ac %	77 ± 12.4
N=C(NO)c1ccc(OCCCCCOc2ccc(-c3nc(N4CCOCC4)sc3N3CCSCC3)cc2)cc1 [Compound 291, N-hydroxy-4-{5-[4-(2-morpholin-4-yl-5-thiomorpholin-4-yl-thiazol-4-yl)-phenoxy]-pentyloxy}-benzamidine]	20 ± 3.8^ab %	12 ± 3.5^ac %	44 ± 4.9
Cc1nc(-c2ccc(OCc3cccc(COc4ccc(C(=N)NO)cc4)c3)cc2)c(C(C)C)s1 [Compound 209, N-hydroxy-4-{3-[4-(5-isopropyl-2-methyl-thiazol-4-yl)-phenoxymethyl]-benzyloxy}-benzamidine]	41 ± 12.0^ab %	50 ± 6.1^ac %	74 ± 7.4
CCN(CC)c1nc(-c2ccc(OCCCCCOc3ccc(C(=N)NO)cc3)cc2)c(CCN2CCOCC2)s1 [Compound 270, N-hydroxy-4-(5-{4-[2-diethylamino-5-(2-morpholin-4-yl-ethyl)-thiazol-4-yl]-phenoxy}-pentyloxy)-benzamidine]	28 ± 4.5^b %	14 ± 2.1^ac %	45 ± 6.9
CN(Cc1cccnc1)c1nc(-c2ccc(OCCCCCOc3ccc(C(=N)NO)cc3)cc2)c(CC2CCCC2)s1 [Compound 147, N-hydroxy-4-[5-(4-{5-cyclopentylmethyl-2-[methyl-(pyridin-3-ylmethyl)amino]-1,3-thiazol-4-yl}phenoxy)pentyloxy]-benzamidine]	31 ± 3.2^ab %	14 ± 3.0^ac %	46 ± 4.1
Cc1nc(-c2ccc(OCCCCCN(C)c3ccc(C(=N)NO)cc3)cc2)c(C(C)C)s1 [Compound 183, N-hydroxy-4-({5-[4-(5-isopropyl-2-methyl-1,3-thiazol-4-yl)-phenoxy]-pentyl}-methyl-amino)-benzamidine]	26 ± 6.1^ab %	37 ± 5.3^ac %	66 ± 7.4
CCCN1CCC(c2nc(-c3ccc(OCCCCCOc4ccc(C(=N)NO)cc4)cc3)c(C)s2)CC1 [Compound 72, N-hydroxy-4-{5-[4-(5-methyl-2-(1-propyl-piperidin-4-yl)-1,3-thiazol-4-yl)phenoxy]pentyloxy}-benzamidine]	30 ± 4.0^ab %	12 ± 3.2^ac %	63 ± 1.1
Cc1sc(N2CCOCC2)nc1-c1ccc(OCCCCCOc2ccc(C(=N)NO)cc2)cc1 [Compound 165, N-hydroxy-4-{5-[4-(5-methyl-2-morpholino-1,3-thiazol-4-yl)phenoxy]pentyloxy}-benzamidine]	29 ± 7.5^ab %	30 ± 3.1^ac %	75 ± 3.8
Cc1nc(-c2ccc(OCCCCCOc3ccc(C(=N)NO)cc3)cc2)c(N2CCOCC2)s1 [Compound 286, N-hydroxy-4-{5-[4-(2-methyl-5-morpholin-4-yl-thiazol-4-yl)-phenoxy]-pentyloxy}-benzamidine]	29 ± 4.1^b %	26 ± 1.5^ac %	43 ± 6.1
N=C(NO)c1ccc(OCCCCCOc2ccc(-c3nc(NC(=O)c4cccnc4)sc3CC3CCCC3)cc2)cc1 [Compound 89, N-hydroxy-4-{5-[4-(5-cyclopentylmethyl-2-(3-pyridylcarbonyl)amino-1,3-thiazol-4-yl)phenoxy]pentyloxy}-benzamidine]	38 ± 1.9^ab %	39 ± 2.7^ac %	58 ± 5.1
CCCN1CCC(c2nc(-c3ccc(OCCCCCOc4ccc(C(=N)NO)cc4)cc3)c(CC3CCCC3)s2)CC1 [Compound 68, N-hydroxy-4-{5-[4-(5-cyclopentylmethyl-2-(1-propyl-piperidin-4-yl)-1,3-thiazol-4-yl)phenoxy]pentyloxy}-benzamidine]	14 ± 1.4^ab %	8 ± 1.9^ac %	42 ± 6.9
